Data set [1] relates to Nephotettix cincticeps. As to the kind of experiment: Insecticidal activity against susceptible Nephotettix cincticeps Ageo (green rice leafhopper)assessed as mortality by foliar-spray. The format is functional.
Data set [2] in a line: Methanol-water partition coefficient, log k of the compound. The format is physicochemical.
For data set [3], the system named is Nephotettix cincticeps. Description: Insecticidal activity against resistant Nephotettix cincticeps Izumi (green rice leafhopper) assessed as mortality by foliar-spray. The format is functional.
The target of data set [4] is Ace-orthologous acetylcholinesterase (Nephotettix cincticeps) (UniProt Q9NJH6). As to the kind of experiment: Inhibition of susceptible Nephotettix cincticeps Ageo (green rice leafhopper) acetylcholinesterase activity.
Chain of Ace-orthologous acetylcholinesterase (Nephotettix cincticeps) (Q9NJH6 20-677 limits assumed): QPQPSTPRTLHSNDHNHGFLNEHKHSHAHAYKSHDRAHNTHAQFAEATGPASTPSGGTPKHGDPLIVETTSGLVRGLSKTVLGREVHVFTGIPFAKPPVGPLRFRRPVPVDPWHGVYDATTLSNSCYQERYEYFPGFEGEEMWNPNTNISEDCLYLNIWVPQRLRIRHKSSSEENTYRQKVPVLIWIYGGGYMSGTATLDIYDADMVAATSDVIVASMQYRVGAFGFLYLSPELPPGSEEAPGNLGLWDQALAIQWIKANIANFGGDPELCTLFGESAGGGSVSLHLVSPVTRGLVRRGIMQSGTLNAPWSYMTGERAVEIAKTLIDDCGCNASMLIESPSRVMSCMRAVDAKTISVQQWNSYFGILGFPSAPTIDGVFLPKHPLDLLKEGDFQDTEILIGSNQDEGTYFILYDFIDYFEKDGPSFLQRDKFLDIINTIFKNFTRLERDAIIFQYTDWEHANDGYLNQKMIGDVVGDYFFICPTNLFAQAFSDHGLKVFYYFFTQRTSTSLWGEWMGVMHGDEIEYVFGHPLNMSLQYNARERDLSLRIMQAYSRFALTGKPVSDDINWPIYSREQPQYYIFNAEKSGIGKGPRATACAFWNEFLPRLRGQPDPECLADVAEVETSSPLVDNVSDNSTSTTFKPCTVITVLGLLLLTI
Data set [5] has the same target. Description: Inhibition of susceptible Nephotettix cincticeps Izumi (green rice leafhopper) acetylcholinesterase activity.

For `CCC(C)Sc1cccc(OS(C)(=O)=O)n1` (stereo not drawn), the figures for the “log(1/LD50)” value in data set [1] and in data set [3] were 8.24 and 7.68, respectively. In addition, the “log K” value in data set [2] stood at 0.37.
For the molecule `CC(C)CCSc1cccc(OS(C)(=O)=O)n1`, the entries for the “log(1/LD50)” value in data set [1] and in data set [3] were 7.24 and 6.44, respectively. Further, the “log K” value in data set [2] is 0.614.
As to `CCC(C)S(=O)(=O)c1cccc(OS(C)(=O)=O)n1` (stereo not drawn), the “log K” value in data set [2] stood at 0.188. In addition, the log(1/I50) in data set [4] came to 8.7; in data set [5], 9.
With `CS(=O)(=O)Oc1cccc(SCC2CC2)n1`, the results for the “log(1/LD50)” value in data set [1] and in data set [3] were 8.64 and 7.8, respectively. Also, in data set [2], the “log K” value is listed as 0.192.
For the molecule `CCCCCS(=O)(=O)c1cccc(OS(C)(=O)=O)n1`, the “log K” value in data set [2] worked out at 0.632. Also, the log(1/I50) in data set [4] was determined as 8.15; in data set [5], 8.
As for `CCCSc1cccc(OS(C)(=O)=O)n1`, the “log(1/LD50)” value is recorded as 8.57 in data set [1] and 7.65 in data set [3]. In data set [2], the “log K” value was determined as 0.196.
Turning to `CS(=O)(=O)Oc1cccc(SCc2ccccc2)n1`, the “log(1/LD50)” value amounted to 7.91 in data set [1] and 6.97 in data set [3]. In data set [2], the “log K” value is on record as 0.33.
With `CCCCS(=O)(=O)c1cccc(OS(C)(=O)=O)n1`, in data set [2], the “log K” value is 0.293. The figures for the log(1/I50) in data set [4] and in data set [5] were 8.8 and 8.22, respectively.
In the case of `CSCCSc1cccc(OS(C)(=O)=O)n1`, the “log(1/LD50)” value in data set [1] stood at 7.7; in data set [3] it was 6.54. In addition, in data set [2], the “log K” value is listed as -0.174.
`CS(=O)(=O)Oc1cccc(S(=O)(=O)C2CCCC2)n1`: the “log K” value in data set [2] is 0.274. Also, the log(1/I50) in data set [4] was determined as 9.15; in data set [5], 9.11.
`CC(C)S(=O)(=O)c1cccc(OS(C)(=O)=O)n1`: the “log K” value in data set [2] is recorded as -0.115. Moreover, the values for the log(1/I50) in data set [4] and in data set [5] were 9.52 and 8.3, respectively.
On the same counts, the results for `CC(C)CS(=O)(=O)c1cccc(OS(C)(=O)=O)n1` are 0.274, 9.15 and 8.4.
For the molecule `CC(C)(C)CSc1cccc(OS(C)(=O)=O)n1`, the “log(1/LD50)” value in data set [1] is on record as 8.26; in data set [3] it was 6.69. For the same molecule, the “log K” value in data set [2] is reported as 0.558.
On the same counts, the results for `CC(C)Sc1cccc(OS(C)(=O)=O)n1` are 8.43, 7.39 and 0.163.
In the case of `CS(=O)(=O)Oc1cccc(S(=O)(=O)c2ccccc2)n1`, the “log K” value in data set [2] was determined as 0.236. The log(1/I50) in data set [4] came out at 8.14; in data set [5], 8.
Consider `CC(C)(C)S(=O)(=O)c1cccc(OS(C)(=O)=O)n1`, for which the “log K” value in data set [2] was found to be 0.085. The log(1/I50) in data set [4] was determined as 7.28; in data set [5], 7.07.
`CS(=O)(=O)Oc1cccc(SC2CCCCC2)n1`: the results for the “log(1/LD50)” value in data set [1] and in data set [3] were 7.69 and 7.28, respectively. In data set [2], the “log K” value was found to be 0.664.
As to `CS(=O)(=O)Oc1cccc(S(=O)(=O)Cc2ccccc2)n1`, in data set [2], the “log K” value was 0.35. Moreover, the log(1/I50) was determined as 8.82 in data set [4] and 8.09 in data set [5].
Regarding `CSc1cccc(OS(C)(=O)=O)n1`, the entries for the “log(1/LD50)” value in data set [1] and in data set [3] were 6.71 and 5.74, respectively. In addition, in data set [2], the “log K” value is reported as 0.259.
On the same counts, the results for `CS(=O)(=O)Oc1cccc(SC2CCCC2)n1` are 8.39, 7.82 and 0.447.
In the case of `CCCC(C)S(=O)(=O)c1cccc(OS(C)(=O)=O)n1` (stereo not drawn), the “log K” value in data set [2] was 0.507. Further, the log(1/I50) in data set [4] stood at 9.3; in data set [5] it was 9.7.
Take `CS(=O)(=O)Oc1cccc(Sc2ccccc2)n1`: the “log(1/LD50)” value stood at 8.53 in data set [1] and 7.3 in data set [3]. Further, the “log K” value in data set [2] is on record as 0.268.
In the case of `CCS(=O)(=O)c1cccc(OS(C)(=O)=O)n1`, the “log K” value in data set [2] is listed as -0.358. Besides, the figures for the log(1/I50) in data set [4] and in data set [5] were 8.02 and 7.22, respectively.
`CCCCSc1cccc(OS(C)(=O)=O)n1`: the “log(1/LD50)” value is recorded as 8.3 in data set [1] and 7.41 in data set [3]. The “log K” value in data set [2] was 0.425.
With `CC(C)CCS(=O)(=O)c1cccc(OS(C)(=O)=O)n1`, in data set [2], the “log K” value turned out to be 0.576. In addition, the values for the log(1/I50) in data set [4] and in data set [5] were 7.77 and 7.8, respectively.
Regarding `CCCS(=O)(=O)c1cccc(OS(C)(=O)=O)n1`, in data set [2], the “log K” value was -0.036. Further, the log(1/I50) in data set [4] is 8.7; in data set [5], 8.08.
Consider `CCCCCSc1cccc(OS(C)(=O)=O)n1`, for which the entries for the “log(1/LD50)” value in data set [1] and in data set [3] were 7.43 and 6.74, respectively. The “log K” value in data set [2] was found to be 0.649.
The matching figures for `CC(C)CSc1cccc(OS(C)(=O)=O)n1` [6-(ISOBUTYLTHIO)PYRIDIN-2-YL METHANESULFONATE]: 8.16, 7.95 and 0.399.
Take `CCSc1cccc(OS(C)(=O)=O)n1`: the results for the “log(1/LD50)” value in data set [1] and in data set [3] were 8.14 and 7.33, respectively. For the same molecule, in data set [2], the “log K” value is on record as -0.034.
Regarding `CS(=O)(=O)Oc1cccc(S(=O)(=O)C2CCCCC2)n1`, in data set [2], the “log K” value was found to be 0.565. Moreover, the results for the log(1/I50) in data set [4] and in data set [5] were 9.02 and 9.1, respectively.
With `CCCC(C)Sc1cccc(OS(C)(=O)=O)n1` (stereo not drawn), the results for the “log(1/LD50)” value in data set [1] and in data set [3] were 7.65 and 7.41, respectively. The “log K” value in data set [2] is on record as 0.59.
Consider `CC(C)(C)Sc1cccc(OS(C)(=O)=O)n1`, for which the figures for the “log(1/LD50)” value in data set [1] and in data set [3] were 7.82 and 6.87, respectively. Further, the “log K” value in data set [2] worked out at 0.277.
Regarding `CS(=O)(=O)Oc1cccc(S(C)(=O)=O)n1`, the “log K” value in data set [2] is -0.602. In data set [4], this molecule yielded a log(1/I50) of 7.17.

Values taken from ChEMBL document CHEMBL3045196, “Relationships between Insecticidal Activity of 6-Alkylthio-2-pyridyl Methanesulfonates and Acetylcholinesterase Inhibition of their Sulfone Derivatives against Nephotettix cincticeps” (J Pestic Sci, 1990).
